Results as given in patent US20240043395A1, “COMPOUNDS AND COMPOSITIONS AS MODULATORS OF TLR SIGNALING” (Neuropore Therapies, Inc., priority 2020, published 2024).
“And” between values parts separate entries of the source, which are not always exact repeats. Equal entries are not always repeated.

Experiments:
Format in all cases: cell-based
[1] = biological target: T1, human TLR2 (Homo sapiens (Human), UniProt O60603); experiment: HEK-Blue hTLR2 antagonism assay (SEAP reporter), agonist Pam2CSK4; settings: HEK-Blue hTLR2 cells; Pam2CSK4 (TLR2/6 agonist) at approx. 3×EC50; 18 h; 8-point dilutions
Protocol: (§1) Synthetic diacylated lipoprotein (Pam2CSK4, TLR2/6 agonist) and synthetic triacylated lipoprotein (Pam3CSK4, TLR1/2 agonist) were obtained from InvivoGen and were dissolved in endotoxin-free water to a concentration 1 mg/mL, vortexed until complete solubilization, and stored in aliquots at −20° C. Prior to addition to cells, an aliquot of the dissolved ligand was vortexed shortly and then was diluted in medium to 25 ng/mL Pam2CSK4 or 1000 ng/mL Pam3CSK4.
(§2) Test compounds were solubilized fresh to 10-20 mM stocks in DMSO and sonicated for 5-10 minutes in a water bath sonicator. Serial dilutions were prepared in DMSO, and then diluted in medium. The final concentration of DMSO used in the assay was 1%.
(§3) HEK-Blue hTLR2 reporter cells (InvivoGen) are HEK-293 cells stably expressing both the human TLR2 gene and a secreted embryonic alkaline phosphatase (SEAP) reporter construct downstream of NFκB promotor sites. HEK-Blue hTLR2 reporters were cultured according to manufacturer's protocol using Dulbecco's Modified Eagle Medium (DMEM; Gibco) containing 1× GlutaMax (Gibco), 10% heat-inactivated Fetal Bovine Serum (Gibco), Pen-Strep (50 U/mL penicillin, 50 μg/mL streptomycin, Gibco), 100 μg/mL Normocin (InvivoGen), and the selective antibiotic, lx HEK-Blue Selection (InvivoGen). Quanti-Blue reagent (InvivoGen) for detection and quantification of secreted alkaline phosphatase was dissolved in 100 mL of endotoxin-free water, warmed to 37° C. for 30 minutes and then filtered using a 0.2 μm membrane.
(§4) On day 1, 50 μL of each test compound dilution in duplicates or a vehicle control was added to each well of a 96-well plate followed by addition of 150 μL of HEK-Blue hTLR2 cell suspension (1×10^5 cells/well) and incubated at 37° C./5% CO2 for 2 h. Next, 50 μL of an approximate 3×EC50 concentration of each agonist (Pam2CSK4 or Pam3CSK4) was added to the wells containing test compounds or the vehicle control. The plates were then incubated at 37° C./5% CO2 for 18 h. For each assay run, non-treated HEK-Blue hTLR2 cells were treated with serial dilutions of agonists to determine EC50 values for the respective run.
(§5) On day 2, secreted alkaline phosphatase (SEAP) activity was detected in cell culture supernatants. In brief, 20 μL was collected from each well and transferred to a 96-well plate. Next, 200 μL of Quanti-Blue detection reagent was added to each well. Plates were incubated at room temperature for 15 min and SEAP activity was assessed by spectrophotometer OD reading at 655 nm. […] IC50 values were calculated based on 8-point dilutions for each compound.

[2] = biological target: T1, human TLR2; experiment: HEK-Blue hTLR2 antagonism assay (SEAP reporter), agonist Pam3CSK4; settings: HEK-Blue hTLR2 cells; Pam3CSK4 (TLR1/2 agonist) at approx. 3×EC50; 18 h; 8-point dilutions
Protocol: as §1, §2, §3, §4, §5

[3] = biological target: human TLR9 (Homo sapiens (Human), UniProt Q9NR96); experiment: HEK-Blue hTLR9 antagonism assay (SEAP reporter), agonist ODN 2006; settings: HEK-Blue hTLR9 cells; ODN 2006 (TLR9 agonist) at approx. 3×EC50; 18 h; exact values 8-point, approximate (~ or <) 4-point dilutions; read-out: IC50 (μM) with ODN2006
Protocol: Synthetic ODNs (ODN 2006 (ODN 7909), class B CpG oligonucleotide, TLR9 agonist) was obtained from InvivoGen and was dissolved in endotoxin-free water to a concentration 500 μM, vortexed until complete solubilization, and stored in aliquots at −20° C. Prior to addition to cells, an aliquot of the dissolved ligand was vortexed shortly and then was diluted in medium to 50 μM.
as §2
as §3, with “hTLR9” for “hTLR2”, “TLR9” for “TLR2”, “hTLR9 cells” for “hTLR2 reporters”, “antibiotics, 10 μg/mL Blasticidin (InvivoGen), and 100 μg/mL Zeocin” for “antibiotic, lx HEK-Blue Selection”
as §4, with “hTLR9” for “hTLR2”, “TLR9 agonist, ODN 2006,” for “each agonist (Pam2CSK4 or Pam3CSK4)”, “vehicle-treated” for “non-treated”, “agonist” for “agonists”
On day 2, secreted alkaline phosphatase (SEAP) activity was detected in cell culture supernatants. In brief, 30 μL was collected from each well and transferred to a 96-well plate. Next, 200 μL of Quanti-Blue detection reagent was added to each well. Plates were incubated at 37° C. for 60 min. and SEAP activity was assessed by spectrophotometer OD reading at 655 nm. […] Exact IC50 values were calculated based on 8-point dilutions for each compound. Approximate IC50 values (˜ or <) were calculated based on 4-point dilutions for each compound.

T1 sequence (O60603 21-784): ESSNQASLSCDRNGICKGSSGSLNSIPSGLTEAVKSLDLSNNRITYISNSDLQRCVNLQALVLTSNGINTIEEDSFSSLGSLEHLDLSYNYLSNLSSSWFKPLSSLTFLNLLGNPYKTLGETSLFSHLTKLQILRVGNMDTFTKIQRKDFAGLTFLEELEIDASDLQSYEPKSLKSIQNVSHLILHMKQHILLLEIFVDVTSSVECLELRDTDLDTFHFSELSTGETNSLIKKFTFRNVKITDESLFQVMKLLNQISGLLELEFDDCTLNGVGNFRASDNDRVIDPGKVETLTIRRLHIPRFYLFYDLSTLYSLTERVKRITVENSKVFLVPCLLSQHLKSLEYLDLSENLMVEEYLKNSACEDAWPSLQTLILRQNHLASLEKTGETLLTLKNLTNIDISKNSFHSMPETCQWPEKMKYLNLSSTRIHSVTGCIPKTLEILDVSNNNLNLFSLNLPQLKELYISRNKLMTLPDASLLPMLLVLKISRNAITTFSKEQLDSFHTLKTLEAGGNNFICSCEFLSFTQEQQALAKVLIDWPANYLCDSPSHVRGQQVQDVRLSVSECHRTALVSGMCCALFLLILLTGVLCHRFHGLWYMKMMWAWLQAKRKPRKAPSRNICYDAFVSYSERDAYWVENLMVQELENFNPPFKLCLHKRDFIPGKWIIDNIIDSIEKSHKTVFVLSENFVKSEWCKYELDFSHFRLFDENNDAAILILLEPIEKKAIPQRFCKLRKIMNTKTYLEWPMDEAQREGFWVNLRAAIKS
Chain of human TLR9 (Q9NR96 26-1032): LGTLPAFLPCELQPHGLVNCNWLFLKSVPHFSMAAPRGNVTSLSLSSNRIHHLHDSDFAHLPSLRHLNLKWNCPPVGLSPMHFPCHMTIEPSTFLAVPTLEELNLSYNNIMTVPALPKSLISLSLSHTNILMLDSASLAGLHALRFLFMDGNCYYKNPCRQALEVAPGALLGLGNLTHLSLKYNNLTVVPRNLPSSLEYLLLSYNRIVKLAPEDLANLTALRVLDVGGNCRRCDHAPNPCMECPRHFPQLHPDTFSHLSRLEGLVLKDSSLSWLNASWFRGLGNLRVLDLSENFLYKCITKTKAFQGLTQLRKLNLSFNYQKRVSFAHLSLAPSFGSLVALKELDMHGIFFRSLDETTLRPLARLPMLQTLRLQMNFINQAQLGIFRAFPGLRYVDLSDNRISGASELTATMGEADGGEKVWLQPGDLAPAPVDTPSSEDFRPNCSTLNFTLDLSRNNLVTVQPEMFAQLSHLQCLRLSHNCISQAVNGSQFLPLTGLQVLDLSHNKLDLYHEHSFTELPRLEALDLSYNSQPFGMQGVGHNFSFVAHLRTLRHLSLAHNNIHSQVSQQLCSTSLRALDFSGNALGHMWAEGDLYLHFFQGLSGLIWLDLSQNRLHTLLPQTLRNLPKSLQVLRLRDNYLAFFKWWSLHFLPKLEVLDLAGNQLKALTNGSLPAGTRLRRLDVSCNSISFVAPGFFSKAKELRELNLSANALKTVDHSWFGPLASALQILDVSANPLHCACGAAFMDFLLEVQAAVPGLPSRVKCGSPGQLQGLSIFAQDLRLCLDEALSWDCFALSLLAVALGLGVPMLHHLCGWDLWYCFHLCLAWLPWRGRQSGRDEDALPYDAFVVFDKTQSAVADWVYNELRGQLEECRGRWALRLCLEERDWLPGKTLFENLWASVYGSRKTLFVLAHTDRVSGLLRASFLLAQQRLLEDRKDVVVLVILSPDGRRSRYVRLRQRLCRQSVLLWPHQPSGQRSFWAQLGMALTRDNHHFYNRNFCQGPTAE

IC50 [1]	IC50 [2]	IC50 [3]	Structure (SMILES)
1.1 µM	0.5 µM	0.26 µM	O=C(c1cc(F)c(O)c(/C=N/N2CCOCC2)c1)N1CCC(c2ccc(N3CCCC3)cc2)CC1 [Compound 164, (3-fluoro-4-hydroxy-5-((morpholinoimino)methyl)phenyl)(4-(4-(pyrrolidin-1-yl)phenyl)piperidin-1-yl)methanone]
1.1 µM	0.9 µM	0.41 µM	CN1CCN(/N=C/c2cc(-c3nc(-c4ccc(N5CCCC5)nc4)ns3)cc(F)c2O)CC1 [Compound 165, 2-fluoro-6-(((4-methylpiperazin-1-yl)imino)methyl)-4-(3-(6-(pyrrolidin-1-yl)pyridin-3-yl)-1,2,4-thiadiazol-5-yl)phenol]
2.8 µM	1 µM	0.14 µM and 0.18 µM	Oc1c(F)cc(-c2nc(-c3ccc(N4CCCC4)cc3)ns2)cc1/C=N/N1CCOCC1 [Compound 166, 2-fluoro-6-((morpholinoimino)methyl)-4-(3-(4-(pyrrolidin-1-yl)phenyl)-1,2,4-thiadiazol-5-yl)phenol]
1.5 µM	0.6 µM	0.5 µM	O=Cc1cc(C(=O)Nc2nc(-c3ccc(N4CCCC4)cc3)ns2)cc(F)c1O [Compound 167, 3-fluoro-5-formyl-4-hydroxy-N-(3-(4-(pyrrolidin-1-yl)phenyl)-1,2,4-thiadiazol-5-yl)benzamide]

The next lines start with the molecule.

Structure (SMILES)	IC50 [1]	IC50 [2]	IC50 [3]
O=Cc1cc(C(=O)Nc2ncc(-c3ccc(F)cc3)s2)cc(F)c1O [Compound 11, 3-fluoro-N-(5-(4-fluorophenyl)thiazol-2-yl)-5-formyl-4-hydroxybenzamide]	1 µM	0.7 µM	0.4 µM
O=Cc1cc(C(=O)Nc2ncc(-c3cccc(N4CCCC4)c3)s2)cc(F)c1O [Compound 12, 3-fluoro-5-formyl-4-hydroxy-N-(5-(3-(pyrrolidin-1-yl)phenyl)thiazol-2-yl)benzamide]	0.6 µM	0.6 µM	0.2 µM
O=Cc1cc(C(=O)Nc2cnc(N3CCCC3)c(C(F)(F)F)c2)cc(F)c1O [Compound 19, 3-fluoro-5-formyl-4-hydroxy-N-(6-(pyrrolidin-1-yl)-5-(trifluoromethyl)pyridin-3-yl)benzamide]	0.4 µM	0.3 µM	0.6 µM
O=Cc1cc(-c2cnn(-c3ccc(C(F)(F)F)cc3)c2)cc(F)c1O [Compound 127, 3-fluoro-2-hydroxy-5-(1-(4-(trifluoromethyl)phenyl)-1H-pyrazol-4-yl)benzaldehyde]	0.5 µM	0.5 µM	0.1 µM
CN1CCN(/N=C/c2cc(C(=O)N3CCC(c4ccc(N5CCCC5)cc4)CC3)cc(F)c2O)CC1 [Compound 163, (3-fluoro-4-hydroxy-5-(((4-methylpiperazin-1-yl)imino)methyl)phenyl)(4-(4-(pyrrolidin-1-yl)phenyl)piperidin-1-yl)methanone]	0.6 µM	0.4 µM	0.26 µM
